Assay results as given in patent US12569459B2, “Compositions and methods for treating pulmonary edema or lung inflammation” (priority 2020, dated 2026).

Key:
[1] = test system: Sprague Dawley rats exposed to normobaric hyperoxia; assay: Hyperoxia-induced lung injury (HALI) model with intraperitoneal T3
[2] = GLP toxicity phase: intratracheal instillation once daily for five days; format: in vivo, Sprague-Dawley rats; conditions: for Body weight: female rats, at terminal euthanasia vs pre-dose
Method: Safety studies are described in Example 3, below. In a safety study conducted in compliance with Good Laboratory Practices (GLPs), 0.3 mL (300 μl) was administered to rats weighing 250-350 grams via intratracheal instillation daily for five consecutive days. […] The calculated dose based on lung weight was about 1.57 μg/g wet lung weight.
This study was conducted using both male and female Sprague-Dawley rats (Envigo, Huntingdon, United Kingdom). Evaluation of the safety of the tracheal route of instillation for liothyronine sodium injection in human clinical trials can be accomplished in this species at appropriate dose levels. Furthermore, responses to thyroid hormone in rats are similar to responses in humans, and the choice of the rat model is based in large part on pharmacologic data from studies of thyroid hormone and associated receptors and physiological responses in rat lung. The University of Minnesota is accredited by the Association for the Assessment and Accreditation of Laboratory Animal Care, International (AAALAC) and registered with the United States Department of Agriculture to conduct research in laboratory animals. Animal studies conformed to NIH guidelines (Guide for the Care and Use of Laboratory Animals. NIH publication No. 86-23. Revised 1985). The protocol was reviewed and approved, as applicable, by the Institutional Animal Care and Use Committee (IACUC) at the University of Minnesota for compliance with regulations prior to study initiation or implementation of amended activities.
Sixty animals (plus two spare animals/sex/group) were anesthetized and dosed via intratracheal instillation of test or control materials for five consecutive days. On the day after the last dose a terminal blood collection was performed for clinical pathology, after which animals were euthanized and a gross examination of all organs was performed by a board-certified veterinary pathologist. Select tissues were collected for histopathology. […] Terminal blood collection was performed at two designated time points per animal up to 24 hours after administration for toxicokinetic evaluation. TK animals were euthanized without further evaluation after the final blood collection. All animals were acclimated for a minimum of seven days prior to the dosing procedure. Animals underwent baseline observations and examinations prior to the initiation of the study, and clinical observations and body weight monitoring were performed throughout the in-life portion of the study. All animals received the same dose volume (0.3 mL) of either test or control materials. This maximum feasible dose (MFD) is constrained by the maximum volume that can be safely and reproducibly (over five days) instilled into lungs of rats weighing 250 g to 350 g, which was determined in preliminary toxicology studies to be 0.3 mL. Actual doses delivered are reported as both μg/kg body weight and μg/gm wet lung weight. The toxicity phase animals were 72-135 days of age at the time of initial dosing. Males weighed between 256.52 g and 307.50 g with a mean±standard deviation of 286.74±11.77 g, and females weighed between 250.46 g and 299.01 g with a mean±standard deviation of 260.64±10.34 g. The TK phase animals were 68-144 days of age at the time of initial dosing. Males weighed between 261.23 g and 316.19 g; females weighed between 250.06 g and 280.32 g.
Test and control materials were drawn into dosing syringes using aseptic technique. Using a 18G needle, 0.5 mL of air was drawn into a 1 cc syringe followed by 0.3 mL (300 μL) of the solutions. Animals were anesthetized with a combination of ketamine, 40 mg/kg to 200 mg/kg, and xylazine, 1 mg/kg to 7 mg/kg intraperitoneally (IP), to effect. The dose was adjusted daily, as needed, based on individual animal response and recovery. Depth of anesthesia was evaluated by toe pinch, and eye lubricant was applied to the eyes. […]

[3] = test system: intubated patients with ARDS; assay: Phase I/II trial of instilled T3: safety and clinical course; format: in vivo, human
Excerpt: Ten milliliters (mls) of reformulated, pH-adjusted commercial intravenous T3 solution (Par Pharmaceutical, Navi Mumbai, India; and XGen Pharmaceuticals DJB, Inc., Horseheads, NY) was instilled directly into the airspaces via a suction catheter in the endotracheal tube of intubated patients with ARDS. […] The study was approved by the Essentia IRB (Duluth, MN) and listed on ClinicalTrials.gov (NCT04115514).
Subsequent doses were given on days 4, 6, and 7. […] Despite Klebsiella aerogenes positive sputum culture, they were extubated on ventilator day 11. After discharge from the ICU, they had some confusion and delirium.

HO-1 = assay: Western blot of HO-1 protein in RLE-6TN cells under hyperoxia; format: cell-based, rat; conditions: T3 10^−6 M
Method: FIG. 10. HO-1 Upregulation is required for T3-increased RLE-6TN cell survival in hyperoxia. […] The cells were then collected for Western Blot analysis. (B) The cells were incubated in 21% O2 and 5% CO2 for 72 hours in the present of HO-1 inhibitor Tin Protoporphyrin IX(10^−6 M) tinT3 (10^−6 M). […] Cell viability is assessed with trypan blue. The number of viable cells under specific conditions is presented as a percentage of the cell number related to hyperoxia alone. Data are mean±s.d. of three independent experiments with *=P<0.05; **=P<0.01.
At the end of the hyperoxia exposure period, the viable cells were counted by trypan blue dye exclusion.
The cells were lysed in lysis buffer containing 20 mM Tris HCl (pH 7.5), 150 mM NaCl, 1 mM EDTA, 1 mM EGTA, 1% (vol/vol) Triton X-100 with protease inhibitors (1 mM PMSF, 2 μg/ml pepstatin, and 10 μg/ml each of aprotinin and leupeptin), and phosphatase inhibitors (2.5 mM sodium pyrophosphate, 1 mM β-glycerophosphate, and 1 mM Na3VO4). The lysate was drawn 10 times through a 25-gauge needle on ice for further lysis and then was centrifuged at 13,000 rpm for 15 minutes at 4° C. The supernatant was collected, and the protein concentrations were determined by use of the BCA protein assay kit (Sigma-Aldrich, St. Louis, MO). Immediately after this step, equal amounts of protein were subjected to Western blotting analysis.

[4] = test system: rat lung mucosa and airspaces; conditions: in vivo
Method: Using aseptic technique, vials of liothyronine sodium were opened and the entire contents were transferred into sterile 1.5 mL Eppendorf tubes. 80-90 μL of 1.0 N HCl was added to the tube and gently vortexed, and the pH was measured using pH test strips (pH 4.5 to 10.0, Ricca Chemical Co., Arlington, TX). Additional HCl was titrated in gradually, as needed, until the pH was in the desired range. […] This solution was stored at 4° C. and used for up to 26 hours after pH adjustment procedure.

[5] = females, 1 day after fifth dose

SMILES: N[C@@H](Cc1cc(I)c(Oc2ccc(O)c(I)c2)c(I)c1)C(=O)O [T3, triiodothyronine]
- BALF protein concentration ([1]; 48-hour and 60-hour time points of hyperoxia, vs hyperoxia alone): attenuated significantly the hyperoxic increases in the BALF protein concentration
- Serum total T3 ([1]; 95% oxygen 60 hours, intraperitoneal T3 supplementation (50 μg/kg bodyweight/24 hours)): augmented serum total T3
- MPO-positive cells in the lungs (immunostaining) ([1]; 95% oxygen 60 hours, vs hyperoxic lungs without T3): fewer MPO-positive cells
- BALF cell numbers ([1]; 48 hours and 60 hours of 95% oxygen, vs hyperoxia alone): significantly reduced the BALF cell numbers
- Lung morphology (histopathology) ([1]; 60 hours hyperoxia, systemic T3 supplementation): persistence of virtually normal lung morphology
- Lung MPO activity ([1]; 60 hours of hyperoxia): significantly reduced the hyperoxia-induced MPO activity
- Gross pathology at necropsy ([2]; all toxicity phase animals): No evidence of toxicity was observed grossly
- Clinical observations ([2]; during the study): No adverse T3 related clinical observations were observed
- Treatment-related macroscopic or microscopic findings ([2]; end organs examined): no macroscopic or microscopic findings in any of the end organs examined
- Body weight ([2]; toxicity phase): weighed slightly less than their pre-dose weight
- Body weight ([2]; toxicity phase, listed as liothyronine sodium): did not regain body weight at the same rate as males or as in control groups
- Hematology vs control groups [2, 5]: mildly increased reticulocyte count and degree of polychromasia
- Serum chemistry vs control groups [2, 5]: slight statistical difference in the mean albumin concentration
- Organ weight of the lungs ([2]; five days intratracheal instillation): no differences in the organ weight of the lungs
- Hematology parameters vs control groups ([2]; males, 1 day after fifth dose): no statistical or clinically significant changes
- Serum chemistry vs control groups ([2]; males, 1 day after fifth dose): slight difference in the mean globulin level
- Deaths after dose administration ([2]; toxicity phase, T3 group, ascribed to colon impaction and instillation procedure): two T3 test animals that died after dose administration
- Complications or changes (histopathologic, physiologic, laboratory value assessments) ([2]; ~2.7 μg in 0.3 mL intratracheally daily for five consecutive days): No significant complications or changes were observed
- Follow-up status ([3]; Patient 1, 60 days): normal complete pulmonary function tests (PFTs) and chest radiograph at 60 days
- Ventilator day of extubation ([3]; Patient 1, four 50 μg doses from day 3): 11
- Tolerability of instillation ([3]; Patient 2): tolerated each installation without apparent adverse side effects
- Follow-up status ([3]; Patient 2, 60-day clinic follow up): asymptomatic with normal lung exam, chest radiograph and PFTs
- Ventilator day of extubation ([3]; Patient 2, escalating doses from ventilator day 3): 20
- Oxygenation ([3]; Patient 2, previously deteriorating): stabilized over the four treatment days
- Adverse pulmonary or systemic events ascribed to T3 instillation ([3]; Patients 1 and 2): Neither patient had significant adverse pulmonary or systemic events
- Vasopressor dose required to maintain mean arterial pressure ([3]; Patients 1 and 2): decreased in temporal association with the T3 instillation
- Total cellular HO-1 protein (HO-1): significantly enhanced total cellular protein of HO-1
- Toxicity of instillation into airway and lung [4]: extremely toxic to rat lung mucosa and airspaces
